Values belong to the compound of their own block, whether it stands above or below them.
Key:
[1] = pH stability of manganic and ferric chelates of the tropolone chelant; format: physicochemical
Protocol: The manganic chelate of the new chelant was prepared in analogy with Example 2 and formed a brown solution stable at pH 10.
With ferric iron ions the chelant formed a red solution at pH 5. On raising the pH the red colour started to fade at pH 7-8.

[2] = Tropolone chelant with molar equivalents of manganic and ferric ions; format: physicochemical; conditions: pH 9
[3] = Comparative test with a reduced chelant (manganic chelate of borohydride-reduced chelant); format: physicochemical
Protocol: A solution of the chelant according to Example 1 was adjusted to a concentration of 10 mmoles/L and a pH of 5. Sodium borohydride was added at 5 minute intervals until the yellow salicylimine colour disappeared. The pH was then adjusted to 8, and the manganic chelate was generated as described in Example 2 for a final pH of 8.

[4] = Formation and hydrolytic stability of a ferric chelate; format: physicochemical; conditions: for Appearance of ferric chelate solution: colour observed during the next 1-2 hours
Protocol: 2 ml of the chelate solution from Example 1 (0.08 mmole) was diluted with 15 ml water and 1 ml of 0.05 molar ferric chloride solution was added dropwise. The pH was brought to 7 with dilute sodium hydroxide, giving a dark wine red solution. The solution was then gradually alkalised by the addition of dilute sodium hydroxide, and the colour was observed during the next 1-2 hours.

[5] = Hydrolytic stability of the new manganic chelate (step-wise alkalisation with dilute sodium hydroxide); format: physicochemical
From the text: The manganic chelate solution from Example 2 was alkalised step-wise with dilute sodium hydroxide. Samples were taken at various pH and set aside for later inspection.

[6] = Soil tests with the new manganic chelate and other manganese sources; format: physicochemical
Protocol: A soil sample was taken from a sugar-beet field in Helsingborg, Sweden. It was sifted and homogenised and analysed by a certified agricultural laboratory by so-called ICP after extraction with dilute acetic of EDTA.
35 g portions of the slightly moist soil were transferred to 250 ml glass bottles together with 120 ml of dilute solutions containing about 30 ppm manganese. The solutions to be tested were made from:
The bottles were rotated in a tumbling device at about 1 revolution per second for a period of 19 days. […] The clear liquid samples were analysed by ICP.

[7] = Shaking test with calcium carbonate; format: physicochemical
From the text: The test in Example 6 was repeated with the new manganic chelate but with analytical grade calcium carbonate instead of soil. The pH of the suspension was 8.5.

[8] = Ahrland et al. 1990, cited from earlier work
[9] = Preference of the new chelant for manganic ions over ferric ions (citrate solutions, pH 7.8); format: physicochemical; conditions: for colour developed: pH 7.8
Protocol: In order to show the preference of the new chelants for manganic ions over ferric ions, stable, slightly alkaline solutions of these ions were prepared by chelation with two moies of citric acid. Both solutions were adjusted with sodium hydroxide to a pH of 7.8 at a concentration of 0.001 mmole/ml of manganese and iron, respectively. Three experiments were made for comparison:
a) of each solution 10 ml (0.01 mmole) was mixed, and 0.25 g of the 0.04 molar chelate (or ligand) solution from. Example 1 […] was added.
b) 10 ml of manganic citrate solution was mixed with 0.25 g of the chelate solution.
c) 10 ml of the ferric citrate solution was mixed with 0.25 g of the chelate solution.

[10] = b) manganic citrate solution only
[11] = c) ferric citrate solution only

pH at which the ferric chelate starts to hydrolyse [4]: 9 | Appearance of ferric chelate solution ([4]; pH 7): Wine red | Appearance of ferric chelate solution ([4]; pH 8): Wine red | Appearance of ferric chelate solution ([4]; pH 9): Slightly lighter wine red | Appearance of ferric chelate solution ([4]; pH 10): Lighter wine red | Appearance of ferric chelate solution ([4]; pH 11): Much lighter wine red
Structure (SMILES): O=C([O-])CC(N=Cc1ccccc1[O-])C(CC(=O)[O-])N=Cc1ccccc1[O-].[Fe+3] (stereo not drawn) [Example 5]

pH up to which the manganic chelate forms stable solutions / is stable to hydrolysis ([5]; manganic chelate): at least 10.5 | appearance of manganic chelate solution ([5]; pH 8, after 1 h): clear, | appearance of manganic chelate solution ([5]; pH 8, after 24 hours): clear, same colour | appearance of manganic chelate solution ([5]; pH 8, after 5 days): clear, | appearance of manganic chelate solution ([5]; pH 8, immediately): clear ochre | appearance of manganic chelate solution ([5]; pH 9, after 1 h): clear, | appearance of manganic chelate solution ([5]; pH 9, after 24 hours): clear, same colour | appearance of manganic chelate solution ([5]; pH 9, after 5 days): clear, | appearance of manganic chelate solution ([5]; pH 9, immediately): clear, same colour | appearance of manganic chelate solution ([5]; pH 10.5, after 1 h): clear, | appearance of manganic chelate solution ([5]; pH 10.5, after 24 hours): clear, same colour | appearance of manganic chelate solution ([5]; pH 10.5, after 5 days): clear, | appearance of manganic chelate solution ([5]; pH 10.5, immediately): clear, same colour | appearance of manganic chelate solution ([5]; pH 11, after 1 h): clear, | appearance of manganic chelate solution ([5]; pH 11, after 24 hours): slight precipitate | appearance of manganic chelate solution ([5]; pH 11, after 5 days): slight | appearance of manganic chelate solution ([5]; pH 11, immediately): clear, same colour | appearance of manganic chelate solution ([5]; pH 11.3, after 1 h): precipitation | appearance of manganic chelate solution ([5]; pH 11.3, after 24 hours): considerable dark | appearance of manganic chelate solution ([5]; pH 11.3, after 5 days): as before | appearance of manganic chelate solution ([5]; pH 11.3, immediately): clear, same colour | soluble manganese retained, of its original content ([6]; after 19 days with soil of low manganese, high iron content): about 50% | time to visible colour change of centrifuged sample to orange yellow ([6]; soil test): after a week | manganese content in the liquid phase ([7]; calcium carbonate suspension, pH 8.5, remained constant for several weeks): 30 ppm | colour of liquid phase ([7]; calcium carbonate suspension, pH 8.5, several weeks): remained the same yellow ochre | solubility in shaking test with calcium carbonate ([7]; for at least several weeks): completely soluble | hydrolytic stability ([7]; pH 8.5 in the presence of calcium): excellent hydrolytic stability
Structure (SMILES): O=C([O-])CC(N=Cc1ccccc1[O-])C(CC(=O)[O-])N=Cc1ccccc1[O-].[Mn+3] (stereo not drawn) [Example 2]

stability of the yellow colour ([9]; a) manganic citrate + ferric citrate solutions): stable for weeks | colour developed ([9]; a) manganic citrate + ferric citrate solutions (0.01 mmole each)): yellow ochre colour | stability of the yellow colour [9, 10]: stable for weeks | colour developed [9, 10]: yellow ochre colour | time until solution turned completely red [9, 11]: about one hour | colour developed [9, 11]: red colour | selectivity between ferric and manganic ions ([9]; near neutral pH, yellow colour stable for at least several weeks): remarkable preference for manganic ion
Structure (SMILES): O=C(O)CC(N=Cc1ccccc1O)C(CC(=O)O)N=Cc1ccccc1O (stereo not drawn) [Example 1]

Continued, compound first:

Structure (SMILES): O=C(O)CC(N=c1cccccc1O)C(CC(=O)O)N=c1cccccc1O (stereo not drawn) [Example 9]
pH at which the red colour started to fade ([1]; ferric chelate, on raising the pH): 7-8 | appearance with ferric iron ions ([1]; ferric chelate, pH 5): red solution | appearance with ferric iron ions ([1]; ferric chelate, pH 10): turned yellow, with precipitation of the ferric hydroxide | stability of manganic chelate solution (brown) ([1]; manganic chelate, pH 10): stable | colour with molar equivalents of both manganic and ferric ions (indicating preference for manganic ions) [2]: stable brown colour

Structure (SMILES): O=C([O-])CC(NCc1ccccc1[O-])C(CC(=O)[O-])NCc1ccccc1[O-].[Mn+3] (stereo not drawn) [Example 4]
stability to hydrolysis of manganic chelate of reduced chelant [3]: very unstable to hydrolysis | result on generating the manganic chelate ([3]; final pH of 8): immediate dark precipitate | manganese dioxide precipitation ([3]; neutral pH): started to precipitate immediately

Structure (SMILES): O=C(O)C(NCCNC(C(=O)O)c1ccccc1O)c1ccccc1O.[Mn+3] (stereo not drawn) [manganic EDDHA, reference compound]
time to colour change of centrifuged sample from brownish to red (manganese replaced by ferric iron) ([6]; soil test): ≤ 1 days | pKa for hydrolysis of manganic chelate ([8]; manganic chelate): 9.3

Structure (SMILES): O=C(O)C(NCCNC(C(=O)O)c1ccccc1O)c1ccccc1O (stereo not drawn) [EDDHA, ethylenediamine-di-2-hydroxyphenylacetic acid]
pKa for hydrolysis of ferric chelate ([8]; ferric chelate): 12.7

Reference: patent US6627580B2, “Chelating agents and their manganic chelates” (Akzo Nobel N.V., priority 1997, dated 2003)
